Measurements: patent publication US6358885B1, “Substituted phenylheterocyclic herbicides” (Mississippi State University, priority 1992, dated 2002)

Assays:
Assay in all cases: Test G preemergence/postemergence greenhouse plant response rating 0 to 100
[1] = tested on: alfalfa; type: in vivo, Medicago ativa; settings: 0 to 100 scale
Method in brief: (§1)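 Pre- and postemergence treatments used compound in non-phytotoxic solvent on potted greenhouse plants grown from seed, rhizome or plant part. Postemergence plants were at the 2–4 leaf stage; damage was assessed by eye versus untreated pots after 13–21 days.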

[2] = tested on: annual bluegrass; type: in vivo, Poa annua; settings: 0 to 100 scale
Method in brief: as §1

[3] = tested on: bermudagrass; type: in vivo, Cynodon dactylon; settings: 0 to 100 scale
Method in brief: as §1

[4] = tested on: broadleaf signalgrass; type: in vivo, Brachiaria plantaginea; settings: 0 to 100 scale
Method in brief: as §1

[5] = tested on: common purslane; type: in vivo, Portulaca oleracea; settings: 0 to 100 scale
Method in brief: as §1

[6] = tested on: common ragweed; type: in vivo, Ambrosia elatior; settings: 0 to 100 scale
Method in brief: as §1

[7] = tested on: goosegrass; type: in vivo, Eleusine indica; settings: 0 to 100 scale
Method in brief: as §1

[8] = tested on: guineagrass; type: in vivo, Panicum maximum; settings: 0 to 100 scale
Method in brief: as §1

[9] = tested on: itchgrass; type: in vivo, Rottboellia exaltata; settings: 0 to 100 scale
Method in brief: as §1

[10] = tested on: johnsongrass; type: in vivo, Sorghum halepense; settings: 0 to 100 scale
Method in brief: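 Scoring: visual injury at 13 to 21 days post-application, compared with untreated controls. Planting: one species per pot in greenhouse medium. Dosing: compound in non-phytotoxic solvent, within one day of sowing for preemergence or at 2–4 leaves for postemergence.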

[11] = tested on: large crabgrass; type: in vivo, Digitaria sanguinalis; settings: 0 to 100 scale
Method in brief: as §1

[12] = tested on: peanut; type: in vivo, Arachis hypoagaea; settings: 0 to 100 scale
Method in brief: as §1

[13] = tested on: pitted morningglory; type: in vivo, Ipomoea lacunosa; settings: 0 to 100 scale
Method in brief: as §1

[14] = tested on: sandbur; type: in vivo, Cenchrus echinatus; settings: 0 to 100 scale
Method in brief: as §1

[15] = tested on: smooth crabgrass; type: in vivo, Digitaria ischaemum; settings: 0 to 100 scale
Method in brief: as §1

[16] = tested on: yellow nutsedge; type: in vivo, Cyperus esculentus; settings: Rate 125 g/ha, 0 to 100 scale
Method in brief: as §1

## CCS(=O)(=O)Oc1cc(-c2nn3c(c2Cl)CCCC3)c(F)cc1Cl [Compound 25]
[1]; POSTEMERGENCE, Rate 125 g/ha
  Plant response rating, Alfalfa Var.: 0
[1]; POSTEMERGENCE, Rate 250 g/ha
  Plant response rating, Alfalfa Var.: 0
[1]; PREEMERGENCE, Rate 125 g/ha
  Plant response rating, Alfalfa Var.: 0
[1]; PREEMERGENCE, Rate 250 g/ha
  Plant response rating, Alfalfa Var.: 0
[2]; POSTEMERGENCE, Rate 125 g/ha
  Plant response rating, Ann Bluegrass: 0
[2]; POSTEMERGENCE, Rate 250 g/ha
  Plant response rating, Ann Bluegrass: 0
[2]; PREEMERGENCE, Rate 125 g/ha
  Plant response rating, Ann Bluegrass: 0
[2]; PREEMERGENCE, Rate 250 g/ha
  Plant response rating, Ann Bluegrass: 0
[3]; POSTEMERGENCE, Rate 125 g/ha
  Plant response rating, Bermudagrass: 0
[3]; POSTEMERGENCE, Rate 250 g/ha
  Plant response rating, Bermudagrass: 0
[3]; PREEMERGENCE, Rate 125 g/ha
  Plant response rating, Bermudagrass: 0
[3]; PREEMERGENCE, Rate 250 g/ha
  Plant response rating, Bermudagrass: 0
[4]; POSTEMERGENCE, Rate 125 g/ha
  Plant response rating, Brdlf Sgnlgrass: 0
[4]; POSTEMERGENCE, Rate 250 g/ha
  Plant response rating, Brdlf Sgnlgrass: 0
[4]; PREEMERGENCE, Rate 125 g/ha
  Plant response rating, Brdlf Sgnlgrass: 0
[4]; PREEMERGENCE, Rate 250 g/ha
  Plant response rating, Brdlf Sgnlgrass: 0
[5]; POSTEMERGENCE, Rate 125 g/ha
  Plant response rating, Cmn Purslane: 100
[5]; POSTEMERGENCE, Rate 250 g/ha
  Plant response rating, Cmn Purslane: 60
[5]; PREEMERGENCE, Rate 125 g/ha
  Plant response rating, Cmn Purslane: 0
[5]; PREEMERGENCE, Rate 250 g/ha
  Plant response rating, Cmn Purslane: 0
[6]; POSTEMERGENCE, Rate 125 g/ha
  Plant response rating, Cmn Ragweed: 50
[6]; POSTEMERGENCE, Rate 250 g/ha
  Plant response rating, Cmn Ragweed: 0
[6]; PREEMERGENCE, Rate 125 g/ha
  Plant response rating, Cmn Ragweed: 0
[6]; PREEMERGENCE, Rate 250 g/ha
  Plant response rating, Cmn Ragweed: 0
[7]; POSTEMERGENCE, Rate 125 g/ha
  Plant response rating, Goosegrass: 0
[7]; POSTEMERGENCE, Rate 250 g/ha
  Plant response rating, Goosegrass: 0
[7]; PREEMERGENCE, Rate 125 g/ha
  Plant response rating, Goosegrass: 0
[7]; PREEMERGENCE, Rate 250 g/ha
  Plant response rating, Goosegrass: 0
[8]; POSTEMERGENCE, Rate 125 g/ha
  Plant response rating, Guineagrass: 0
[8]; POSTEMERGENCE, Rate 250 g/ha
  Plant response rating, Guineagrass: 0
[8]; PREEMERGENCE, Rate 125 g/ha
  Plant response rating, Guineagrass: 0
[8]; PREEMERGENCE, Rate 250 g/ha
  Plant response rating, Guineagrass: 0
[9]; POSTEMERGENCE, Rate 125 g/ha
  Plant response rating, Itchgrass: 0
[9]; POSTEMERGENCE, Rate 250 g/ha
  Plant response rating, Itchgrass: 0
[9]; PREEMERGENCE, Rate 125 g/ha
  Plant response rating, Itchgrass: 0
[9]; PREEMERGENCE, Rate 250 g/ha
  Plant response rating, Itchgrass: 0
[10]; POSTEMERGENCE, Rate 125 g/ha
  Plant response rating, Johnsongrass: 0
[10]; POSTEMERGENCE, Rate 250 g/ha
  Plant response rating, Johnsongrass: 0
[10]; PREEMERGENCE, Rate 125 g/ha
  Plant response rating, Johnsongrass: 0
[10]; PREEMERGENCE, Rate 250 g/ha
  Plant response rating, Johnsongrass: 0
[11]; POSTEMERGENCE, Rate 125 g/ha
  Plant response rating, Large Crabgrass: 0
[11]; POSTEMERGENCE, Rate 250 g/ha
  Plant response rating, Large Crabgrass: 0
[11]; PREEMERGENCE, Rate 125 g/ha
  Plant response rating, Large Crabgrass: 0
[11]; PREEMERGENCE, Rate 250 g/ha
  Plant response rating, Large Crabgrass: 0
[12]; POSTEMERGENCE, Rate 125 g/ha
  Plant response rating, Peanuts: 0
[12]; POSTEMERGENCE, Rate 250 g/ha
  Plant response rating, Peanuts: 0
[12]; PREEMERGENCE, Rate 125 g/ha
  Plant response rating, Peanuts: 0
[12]; PREEMERGENCE, Rate 250 g/ha
  Plant response rating, Peanuts: 0
[13]; POSTEMERGENCE, Rate 125 g/ha
  Plant response rating, Pit Morninglory: 0
[13]; POSTEMERGENCE, Rate 250 g/ha
  Plant response rating, Pit Morninglory: 0
[13]; PREEMERGENCE, Rate 125 g/ha
  Plant response rating, Pit Morninglory: 0
[13]; PREEMERGENCE, Rate 250 g/ha
  Plant response rating, Pit Morninglory: 0
[14]; POSTEMERGENCE, Rate 125 g/ha
  Plant response rating, S. Sandbur: 0
[14]; POSTEMERGENCE, Rate 250 g/ha
  Plant response rating, S. Sandbur: 0
[14]; PREEMERGENCE, Rate 125 g/ha
  Plant response rating, S. Sandbur: 0
[14]; PREEMERGENCE, Rate 250 g/ha
  Plant response rating, S. Sandbur: 0
[15]; POSTEMERGENCE, Rate 125 g/ha
  Plant response rating, Smooth Crabgras: 0
[15]; POSTEMERGENCE, Rate 250 g/ha
  Plant response rating, Smooth Crabgras: 0
[15]; PREEMERGENCE, Rate 125 g/ha
  Plant response rating, Smooth Crabgras: 0
[15]; PREEMERGENCE, Rate 250 g/ha
  Plant response rating, Smooth Crabgras: 0
[16]; POSTEMERGENCE
  Plant response rating, Yellow Nutsedge: 0
[16]; PREEMERGENCE
  Plant response rating, Yellow Nutsedge: 0
